The text below walks through data of patent US10167262B2, “Herbicidal substituted 3-arylpyrazoles” (FMC CORPORATION, priority 2014, dated 2019).

Holding throughout (test): Test A pre-/postemergence greenhouse herbicide test, visual injury rating 0-100
Holding throughout (type): in vivo

The test system of assay [1] is wheat (Triticum aestivum). From the text:
(§1) Seeds of plant species selected from barnyardgrass (Echinochloa crus-galli), large (Lg) crabgrass (Digitaria sanguinalis), giant foxtail (Setaria faberii), morningglory (Ipomoea spp.), pigweed (Amaranthus retroflexus), velvetleaf (Abutilon theophrasti), wheat (Triticum aestivum), and corn (Zea mays) were planted into a blend of loam soil and sand and treated preemergence with a directed soil spray using test chemicals formulated in a non-phytotoxic solvent mixture which included a surfactant. At the same time these species were also treated with postemergence applications of test chemicals formulated in the same manner. Plants ranged in height from 2 to 10 cm and were in the one- to two-leaf stage for the postemergence treatment. Treated plants and untreated controls were maintained in a greenhouse for approximately 10 days, after which time all treated plants were compared to untreated controls and visually evaluated for injury. Plant response ratings, summarized in Table A, are based on a 0 to 100 scale where 0 is no effect and 100 is complete control. A dash (-) response means no test result.

In a further assay the test system is corn (Zea mays).
From the text: as §1

Assay [2] has as its system barnyardgrass (Echinochloa crus-galli).
From the text: as §1

Assay [3] deals with pigweed (Amaranthus retroflexus).
From the text: as §1

For assay [4], the system named is morningglory (Ipomoea spp.).
From the text: as §1

Assay [5] has as its system large (Lg) crabgrass (Digitaria sanguinalis).
From the text: as §1

Assay [6] deals with giant foxtail (Setaria faberii).
From the text: as §1

The subject of assay [7] is velvetleaf (Abutilon theophrasti).
From the text: as §1

Consider `CON=C(c1cccs1)c1c[nH]nc1-c1cc(Cl)cc(Cl)c1` [Compound 32], for which the “Plant response rating (0 to 100 scale), Wheat” value in assay [1] (Postemergence, 125 g ai/ha) was found to be 0; in assay [1] (Postemergence, 500 g ai/ha) it was 0; in assay [1] (Preemergence, 500 g ai/ha) it was 0. Also, in assay [1] (Preemergence, 125 g ai/ha), the “Wheat plant response rating (0 = no effect, 100 = complete control)” value was 0. For the same compound, the “Plant response rating (0 to 100 scale), Corn” value is given as 0 in the assay with corn (Zea mays) (Postemergence, 125 g ai/ha); 0 in the assay with corn (Zea mays) (Postemergence, 500 g ai/ha); 0 with corn (Zea mays) (Preemergence, 500 g ai/ha). Further, in the assay with corn (Zea mays) (Preemergence, 125 g ai/ha), the “Corn plant response rating (0 = no effect, 100 = complete control)” value was 0. Further, the “Plant response rating (0 to 100 scale), Barnyardgrass” value was found to be 0 in assay [2] (Postemergence, 125 g ai/ha); 0 in assay [2] (Postemergence, 500 g ai/ha); 0 in assay [2] (Preemergence, 500 g ai/ha). Besides, the “Barnyardgrass plant response rating (0 = no effect, 100 = complete control)” value in assay [2] (Preemergence, 125 g ai/ha) is 0. Moreover, the “Plant response rating (0 to 100 scale), Pigweed” value in assay [3] (Postemergence, 125 g ai/ha) is 0; in assay [3] (Postemergence, 500 g ai/ha), 60. The “Pigweed plant response rating (0 = no effect, 100 = complete control)” value in assay [3] (Preemergence, 125 g ai/ha) stood at 0. The “Plant response rating (0 to 100 scale), Morningglory” value came to 0 in assay [4] (Postemergence, 125 g ai/ha); 0 in assay [4] (Postemergence, 500 g ai/ha); 0 in assay [4] (Preemergence, 500 g ai/ha). In addition, the “Morningglory plant response rating (0 = no effect, 100 = complete control)” value in assay [4] (Preemergence, 125 g ai/ha) is recorded as 0. Besides, the “Plant response rating (0 to 100 scale), Crabgrass, Large” value in assay [5] (Postemergence, 125 g ai/ha) came out at 0; in assay [5] (Postemergence, 500 g ai/ha), 0; in assay [5] (Preemergence, 500 g ai/ha), 0. Also, the “Crabgrass, Large plant response rating (0 = no effect, 100 = complete control)” value in assay [5] (Preemergence, 125 g ai/ha) is 0. Moreover, the “Plant response rating (0 to 100 scale), Foxtail, Giant” value in assay [6] (Postemergence, 125 g ai/ha) is 0; in assay [6] (Postemergence, 500 g ai/ha), 0; in assay [6] (Preemergence, 500 g ai/ha), 0. Further, the “Foxtail, Giant plant response rating (0 = no effect, 100 = complete control)” value in assay [6] (Preemergence, 125 g ai/ha) was found to be 0. The “Plant response rating (0 to 100 scale), Velvetleaf” value is listed as 60 in assay [7] (Postemergence, 125 g ai/ha); 70 in assay [7] (Postemergence, 500 g ai/ha); 0 in assay [7] (Preemergence, 500 g ai/ha). In addition, the “Velvetleaf plant response rating (0 = no effect, 100 = complete control)” value in assay [7] (Preemergence, 125 g ai/ha) turned out to be 0.

Regarding `Clc1cc(Cl)cc(-c2n[nH]cc2C(=NNc2ccccc2)c2ccccc2)c1` [Compound 33], the “Plant response rating (0 to 100 scale), Wheat” value came to 0 in assay [1] (Postemergence, 1000 g ai/ha) and 0 in assay [1] (Preemergence, 1000 g ai/ha). Further, the “Plant response rating (0 to 100 scale), Corn” value with corn (Zea mays) (Postemergence, 1000 g ai/ha) amounted to 0; in the assay with corn (Zea mays) (Preemergence, 1000 g ai/ha), 0. The “Plant response rating (0 to 100 scale), Barnyardgrass” value in assay [2] (Postemergence, 1000 g ai/ha) turned out to be 0; in assay [2] (Preemergence, 1000 g ai/ha), 0. Moreover, the “Plant response rating (0 to 100 scale), Pigweed” value in assay [3] (Postemergence, 1000 g ai/ha) was 100; in assay [3] (Preemergence, 1000 g ai/ha) it was 100. Moreover, the “Plant response rating (0 to 100 scale), Morningglory” value in assay [4] (Postemergence, 1000 g ai/ha) is 0; in assay [4] (Preemergence, 1000 g ai/ha), 0. The “Plant response rating (0 to 100 scale), Crabgrass, Large” value is reported as 0 in assay [5] (Postemergence, 1000 g ai/ha) and 0 in assay [5] (Preemergence, 1000 g ai/ha). Moreover, the “Plant response rating (0 to 100 scale), Foxtail, Giant” value in assay [6] (Postemergence, 1000 g ai/ha) came to 0; in assay [6] (Preemergence, 1000 g ai/ha), 0. For the same compound, the “Plant response rating (0 to 100 scale), Velvetleaf” value in assay [7] (Postemergence, 1000 g ai/ha) was 100; in assay [7] (Preemergence, 1000 g ai/ha), 80.

As for `CC(=O)n1cc(C(=O)c2cncc(F)c2)c(-c2cc(Cl)cc(Cl)c2)n1` [Compound 20], the “Plant response rating (0 to 100 scale), Wheat” value came out at 0 in assay [1] (Postemergence, 1000 g ai/ha) and 0 in assay [1] (Preemergence, 1000 g ai/ha). Moreover, the “Plant response rating (0 to 100 scale), Corn” value was found to be 0 with corn (Zea mays) (Postemergence, 1000 g ai/ha) and 0 with corn (Zea mays) (Preemergence, 1000 g ai/ha). The “Plant response rating (0 to 100 scale), Barnyardgrass” value in assay [2] (Postemergence, 1000 g ai/ha) worked out at 0; in assay [2] (Preemergence, 1000 g ai/ha) it was 0. Besides, the “Plant response rating (0 to 100 scale), Pigweed” value in assay [3] (Postemergence, 1000 g ai/ha) is 90; in assay [3] (Preemergence, 1000 g ai/ha), 100. The “Plant response rating (0 to 100 scale), Morningglory” value in assay [4] (Postemergence, 1000 g ai/ha) turned out to be 0; in assay [4] (Preemergence, 1000 g ai/ha), 0. Further, the “Plant response rating (0 to 100 scale), Crabgrass, Large” value in assay [5] (Postemergence, 1000 g ai/ha) was 0; in assay [5] (Preemergence, 1000 g ai/ha), 0. In addition, the “Plant response rating (0 to 100 scale), Foxtail, Giant” value is 0 in assay [6] (Postemergence, 1000 g ai/ha) and 0 in assay [6] (Preemergence, 1000 g ai/ha). Further, the “Plant response rating (0 to 100 scale), Velvetleaf” value was determined as 90 in assay [7] (Postemergence, 1000 g ai/ha) and 80 in assay [7] (Preemergence, 1000 g ai/ha).
